Laboratory results as given in US20110190249A1, “THERAPEUTIC METHODS AND USES OF SAPOGENINS AND THEIR DERIVATIVES” (PHYTOPHARM PLC, priority 2002, published 2011).
Marks after values point to notes of the source that are not given here.

B1: BDNF: brain-derived neurotrophic factor, positive control (protein, UniProt P23560 19-247, looked up)
Neurotrophic factor BDNF …: APMKEANIRGQGGLAYPGVRTHGTLESVNGPKAGSRGLTSLADTFEHVIEELLDEDQKVRPNEENNKDADLYTSRVMLSSQVPLEPPLLFLLEEYKNYLDAANMSMRVRRHSDPARRGELSVCDSISEWVTAADKKTAVDMSGGTVTVLEKVPVSKGQLKQYFYETKCNPMGYTKEGCRGIDKRHWNSQCRTTQSYVRALTMDSKKRIGWRFIRIDTSCVCTLTIKRGR

Experiments:
[1] = tested on: muscarinic acetylcholine receptor; test: Brain M receptor density (3H-QNB) in amyloid β + ibotenic acid rat model; format: in vivo; settings: 18 mg/kg/day gastric tube, two months; model 713 ± 48, control 859 ± 101
Protocol: (§1) An in vivo model of Alzheimer's disease was used to model neurodegeneration. In this model the neurotoxic agents (amyloid β and ibotenic acid) are injected into the brain of the rat. This leads to neuronal loss, receptor loss and cognitive impairment. […] In addition the co-injection of amyloid β with a small amount of ibotenic acid into the rat hippocampus synergistically produces neuronal loss with infiltration of glial cells not only adjacent but also far from the injected site (Morimoto et al., 1998: Neuroscience, 84, 479-487).
(§2) Our studies used the method of Morimoto (Morimoto et al., 1998: Neuroscience, 84, 479-487) with some modifications (unilateral instead of bilateral injection). Three months old, Sprague Dawley rats, were randomly divided into different groups. Injection of amyloid β1-40 and ibotenic acid (both from Sigma) was accomplished by means of a stereotaxic instrument (Stoelting Co.) and the coordinates were AP=−0.5 mm […], L=−2.8 mm […], H=−7.0 mm (ventral to dura). The dose for each rat was amyloid β1-40 (4 μg) and ibotenic acid (1 μg) in 1 μl of saline. The injection was completed in 20 min, and the needle was withdrawn 10 min later. Then the skin was sutured.
(§3) The 8 groups were: • Operated control injected with normal saline (control) • Model (control injected with amyloid β+ibotenic acid) • Model+Episarsasapogenin cathylate (18 mg/kg/day)* • Model+Sarsasapogenin cathylate (18 mg/kg/day)* • Model+Episarsasapogenin ethylsuccinate (18 mg/kg/day) (comparison) • Model+Episarsasapogenin (18 mg/kg/day)* • Model+Epismilagenin (18 mg/kg/day)* • Model+Diosgenin (i.e. negative control, 18 mg/kg/day)
(§4) Episarsasapogenin cathylate, sarsasapogenin cathylate, episarsasapogenin ethylsuccinate (comparison compound), episarsasapogenin, epismilagenin and diosgenin (all at a dosage of 18 mg/kg/day) were administered to animals as stable suspensions in CMC—Na (0.5%) once daily through a gastric tube. The control and the model group were given the same volume of CMC—Na (0.5%) once daily. The drugs and vehicles were given for a period of two months, starting 20 days before operation.
Muscarinic acetylcholine receptor density was assessed. The brain samples were homogenised, centrifuged, and the pellet of centrifugation at 27000×g was re-homogenised and used for measurement. The concentration of ^3H-QNB was chosen at the saturation range. After incubation and separation, the bound portion was measured by liquid scintillation counter.

[2] = tested on: Sprague Dawley rats injected with amyloid β1-40 and ibotenic acid; test: Step-through test in amyloid β + ibotenic acid rat model; format: in vivo; settings: 18 mg/kg/day gastric tube, two months; errors in 5 min; model 4.00 ± 2.40, control 0.60 ± 0.70
Protocol: as §1, §2, §3, §4
Step-Through Test: learning and memory. The effect of test compounds on learning and memory was assessed using the step-through test. A 60×15×15 cm box, divided into 2 equally sized rooms, one dark room with copper rod base, which was electrically charged (40 V ac) when in use, while the other was a light room but not electrically charged. Between the two rooms there is an opening (hole) for the rat to go through. The experiment is carried out for each rat on two consecutive days. The first day is for training; when the rat is adapted in the box for the first 3 min, then put in the light room, with its back toward the hole, and the copper rods of the dark room are charged for 5 min. The second day is for testing, when the number of crosses in 5 min are recorded. Improvements in memory are signalled by a reduction in the number of crosses.

[3] = tested on: rat primary cortical neurones; test: Reversal of glutamate-induced neurodegeneration (LDH), treatment after glutamate exposure; format: cell-based; settings: LDH after 24 h, control = 100
Protocol: (§5) Neuronal cell survival was evaluated by measuring lactate dehydrogenase (LDH) activity released in the media 24 h after test compound treatment or glutamate+test compound exposure, using the CytoTox 96 non-radioactive kit and quantitated by measuring wavelength absorbance at 450 nm.
As above mentioned, exposure of rat primary cortical cultures to glutamate (100 μM; 10 min) caused an increase in lactate dehydrogenase (LDH) activity measured after 24 h, indicating a significant neurodegeneration.

[4] = tested on: rat primary cortical neurones; test: Prevention of glutamate-induced neurodegeneration (LDH release), pre-treatment; format: cell-based; settings: 30 nM, given 24 h before glutamate; LDH 24 h after glutamate; control = 100
Protocol: The objective of this study was to examine the effects of sarsasapogenin, episarsasapogenin cathylate, episarsasapogenin, epismilagenin and smilagenin on the survival of rat primary cortical neurones exposed to glutamate, which is known to induce neuro degeneration.
Rat cortical neurones were cultured for 10 days; at day 10 the medium was changed to a serum-free defined medium. On day 12, 24 hours before glutamate exposure, cultures were washed and medium was replaced with fresh medium containing positive control (β-oestradiol), test compounds (sarsasapogenin, episarsasapogenin cathylate, episarsasapogenin, epismilagenin and smilagenin) or vehicle control (DMSO, 0.25%) or diosgenin as negative control.
On day 13, cultures were exposed to glutamate. After the incubation period, the cultures were washed with and placed in fresh medium, supplemented with relevant compounds or vehicle to evaluate their protective effects, 24 h after glutamate exposure.
as §5

[5] = tested on: rat primary cortical neurones; test: Neurite outgrowth in rat primary cortical neurones; format: cell-based; settings: for Number of neurones displaying neurites, Mean ± s.e.m (%): control 47 ± 2; for Neurite length measured using optical micrometry, Mean ± s.e.m (%): control 100 ± 4
Text: Neurodegenerative disorders are characterised by a progressive loss of neurones and degradation of neuronal processes (neurites). Agents that induce neurite outgrowth may promote the formation of new connections between neurones and ameliorate the symptoms of neurodegenerative conditions (Katzman et al, Faseb J., 5, 278-286, 1991).

[6] = tested on: rat mesencephalic dopaminergic neurones; test: Treatment of dopaminergic neurones after MPP+ exposure (survival, neurites); format: cell-based; settings: treatment 0.03 nM; MPP+ 2 μM; MPP+ alone 76 ± 4
Text: Smilagenin and sarsasapogenin also reverse the neurodegeneration caused by exposure to the neurotoxin 1-methyl-4-phenylpyridinium (MPP^+) in rat mesencephalic dopaminergic neurones; a model of Parkinson's disease in vitro.
Glial cell line-derived neurotrophic factor (GDNF) and brain-derived neurotrophic factor (BDNF), molecules that are involved in neuronal growth, and 17β-oestradiol were used as positive controls. Treatment with smilagenin and sarsasapogenin produced a significant increase in the neuronal survival compared to neurones exposed to MPP^+ alone (Table 8).
Exposure to MPP^+ caused not only a significant decrease in dopaminergic number but also in the percentage of neurites.

[7] = tested on: rat primary spinal motor neurones; test: Glutamate-induced neurodegeneration in spinal motor neurones (LDH); format: cell-based; settings: control 100 ± 1
Protocol: The objective of this study was to examine the effects of sarsasapogenin and smilagenin on the survival of rat primary spinal motor neurones exposed to glutamate, which is known to induce neurodegeneration in this model of motor neurodegeneration.
Rat motor neurones were prepared according to the method described by (Martinou et al, Neuron, 8, 737-744, 1992). On day 10, medium was removed and the cultures were exposed to glutamate (4 microM) for 10 min at 37° C. in defined medium. After the glutamate exposure, cultures were washed with Dulbecco modified Eagle medium at 37° C. then placed in fresh culture medium containing test compounds. After 48 h, the extent of spinal motor neurone degeneration was determined by measuring the amount of lactate dehydrogenase (LDH) released into the culture medium as above.

[8] = 3 nM after glutamate 100 μM 10 min
[9] = 30 nM after glutamate 100 μM 10 min

Molecule	M receptor density [1]	Learning and memory Step through test Error No [2]	Cortical neurones previously exposed to glutamate, Mean ± s.e.m (%) [3, 8] [%]	Cortical neurones previously exposed to glutamate, Mean ± s.e.m (%) [3, 9] [%]	other results
CCOC(=O)OC1CCC2(C)C(CCC3C2CCC2(C)C3CC3OC4(CCC(C)CO4)C(C)C32)C1 (centres unmarked) [sarsasapogenin cathylate]	916 ± 158* fmol/mg/protein	1.36 ± 1.03*	–	–	–
CC(C)CCC1OC2C[C@H]3[C@@H]4CC[C@@H]5C[C@@H](O)CC[C@]5(C)[C@H]4CC[C@]3(C)[C@H]2[C@@H]1C (stereo partly drawn) [16,22-epoxycoprostan-3β-ol]	–	–	114 ± 7	134 ± 5	–
C[C@@H]1CC[C@@]2(OC1)O[C@H]1C[C@H]3[C@@H]4CC[C@@H]5CC(=O)CC[C@]5(C)[C@H]4CC[C@]3(C)[C@H]1[C@@H]2C [Smilagenone, smilagenone]	–	–	119 ± 7	119 ± 4	–
CCOC(=O)CCC(=O)OC1CCC2(C)C(CCC3C2CCC2(C)C3CC3OC4(CCC(C)CO4)C(C)C32)C1 (centres unmarked) [Episarsasapogenin ethylsuccinate, episarsasapogenin ethylsuccinate, reference compound]	774 ± 79 fmol/mg/protein	3.73 ± 1.35	–	–	–
CC1CCC2(OC1)OC1CC3C4CCC5CC(OC(=O)CN)CCC5(C)C4CCC3(C)C1C2C.Cl (centres unmarked) [Smilagenin glycinate hydrochloride, smilagenin glycinate hydrochloride]	–	–	117 ± 4	141 ± 6	–
C[C@@H]1CC[C@@]2(OC1)O[C@H]1C[C@H]3[C@@H]4CC[C@@H]5C[C@H](O)CC[C@]5(C)[C@H]4CC[C@]3(C)[C@H]1[C@@H]2C [epismilagenin]	877 ± 90* fmol/mg/protein	1.73 ± 0.91*	–	–	Prevention of glutamate-induced neurodegeneration, Mean ± s.e.m (%) [4]: 79 ± 2%
C[C@H]1CC[C@@]2(OC1)O[C@H]1C[C@H]3[C@@H]4CC[C@@H]5C[C@H](O)CC[C@]5(C)[C@H]4CC[C@]3(C)[C@H]1[C@@H]2C [episarsasapogenin]	869 ± 104* fmol/mg/protein	1.50 ± 1.18*	–	–	Prevention of glutamate-induced neurodegeneration, Mean ± s.e.m (%) [4]: 88 ± 3%
C[C@]12CC[C@@H]3c4ccc(O)cc4CC[C@H]3[C@@H]1CC[C@@H]2O [17β-oestradiol, reference compound]	–	–	69 ± 2	75 ± 5	Number of neurones displaying neurites, Mean ± s.e.m (%) ([5]; 0.3 pM): 48 ± 2%; Neurite length measured using optical micrometry, Mean ± s.e.m (%) ([5]; 0.3 pM): 154 ± 5%; Number of neurones displaying neurites, Mean ± s.e.m (%) ([5]; 3 pM): 60 ± 2%; Neurite length measured using optical micrometry, Mean ± s.e.m (%) ([5]; 3 pM): 163 ± 4%; Number of neurones displaying neurites, Mean ± s.e.m (%) ([5]; 30 pM): 59 ± 2%; Dopaminergic neurones after MPP+ exposure (survival), Mean ± s.e.m (%) [6]: 106 + 5%; Glutamate-induced neurodegeneration in spinal motor neurones, Mean ± s.e.m (%) ([7]; 300 nM for 48 h after glutamate 4 microM 10 min): 116 + 6%
C[C@@H]1CC[C@@]2(OC1)O[C@H]1C[C@H]3[C@@H]4CC=C5C[C@@H](O)CC[C@]5(C)[C@H]4CC[C@]3(C)[C@H]1[C@@H]2C [diosgenin, reference compound]	770 ± 68 fmol/mg/protein	3.75 ± 1.49	–	49 ± 6	Prevention of glutamate-induced neurodegeneration, Mean ± s.e.m (%) [4]: 72 ± 4%
CC(C)CCC[C@@H](C)[C@H]1CC[C@H]2[C@@H]3CC[C@@H]4C[C@@H](O)CC[C@]4(C)[C@H]3CC[C@]12C [Coprosterol, coprosterol]	–	–	126 ± 5	116 ± 4	–
B1	–	–	–	–	Glutamate-induced neurodegeneration in spinal motor neurones, Mean ± s.e.m (%) ([7]; 3 nM for 48 h after glutamate 4 microM 10 min): 148 ± 8%
